Tests used:
Format in all cases: in vivo
Conditions in all cases: post-emergence spray at 4-5 leaf stage, 250 g/ha active ingredient with 450 kg/ha water, rated after 3 weeks in greenhouse
[1] = tested on: wheat; assay: post-emergence stage experiment, crop (Table 1)
Experimental: (§1) The activity level standard of harmful plant destruction (i.e. growth control rate) is as follows: The above described growth control rate is fresh weight control rate. Monocotyledonous and dicotyledonous weed seeds and main crop seeds (i.e. wheat, corn, rice, soybean, cotton, oilseed, millet and sorghum.) were put into a plastic pot loaded with soil. Then covered with 0.5-2 cm soil, the seeds were allowed to grow in good greenhouse environment. The test plants were treated at 4-5 leaf stage 2-3 weeks after sowing. The test compounds of the invention were dissolved with acetone respectively, then added with 80 tween and diluted by certain amount of water to certain concentration. The solution was sprayed to the plants with a sprayer. Then the plants were cultured for 3 weeks in the greenhouse.

[2] = tested on: corn; assay: post-emergence stage experiment, crop (Table 1)
Experimental: as §1

[3] = tested on: echinochloa; assay: weed control effect in post-emergence stage (Table 1); set-up: key: Level 10: completely dead; Level 9: above 95% growth control rate; Level 8: above 90% growth control rate; Level 7: above 80% growth control rate; Level 6: above 70% growth control rate; Level 5: above 60% growth control rate; Level 4: above 50% growth control rate; Level 3: above 20% growth control rate; Level 2: 5%-20% growth control rate; Level 1: below 5% growth control rate
Experimental: as §1

[4] = tested on: crab grass; assay: as above; set-up: key: Level 10: completely dead; Level 9: above 95% growth control rate; Level 8: above 90% growth control rate; Level 7: above 80% growth control rate; Level 6: above 70% growth control rate; Level 5: above 60% growth control rate; Level 4: above 50% growth control rate; Level 3: above 20% growth control rate; Level 2: 5%-20% growth control rate; Level 1: below 5% growth control rate
Experimental: as §1

[5] = tested on: rorippa indica; assay: as above; set-up: key: Level 10: completely dead; Level 9: above 95% growth control rate; Level 8: above 90% growth control rate; Level 7: above 80% growth control rate; Level 6: above 70% growth control rate; Level 5: above 60% growth control rate; Level 4: above 50% growth control rate; Level 3: above 20% growth control rate; Level 2: 5%-20% growth control rate; Level 1: below 5% growth control rate
Experimental: as §1

[6] = tested on: Indian mallow; assay: as above; set-up: key: Level 10: completely dead; Level 9: above 95% growth control rate; Level 8: above 90% growth control rate; Level 7: above 80% growth control rate; Level 6: above 70% growth control rate; Level 5: above 60% growth control rate; Level 4: above 50% growth control rate; Level 3: above 20% growth control rate; Level 2: 5%-20% growth control rate; Level 1: below 5% growth control rate
Experimental: as §1

[7] = tested on: bidens bipinnata; assay: as above; set-up: key: Level 10: completely dead; Level 9: above 95% growth control rate; Level 8: above 90% growth control rate; Level 7: above 80% growth control rate; Level 6: above 70% growth control rate; Level 5: above 60% growth control rate; Level 4: above 50% growth control rate; Level 3: above 20% growth control rate; Level 2: 5%-20% growth control rate; Level 1: below 5% growth control rate
Experimental: as §1

[8] = tested on: foxtail; assay: as above; set-up: key: Level 10: completely dead; Level 9: above 95% growth control rate; Level 8: above 90% growth control rate; Level 7: above 80% growth control rate; Level 6: above 70% growth control rate; Level 5: above 60% growth control rate; Level 4: above 50% growth control rate; Level 3: above 20% growth control rate; Level 2: 5%-20% growth control rate; Level 1: below 5% growth control rate
Experimental: as §1

[9] = tested on: rice; assay: post-emergence stage experiment, crop (Table 1); set-up: key: Level 10: completely dead; Level 9: above 95% growth control rate; Level 8: above 90% growth control rate; Level 7: above 80% growth control rate; Level 6: above 70% growth control rate; Level 5: above 60% growth control rate; Level 4: above 50% growth control rate; Level 3: above 20% growth control rate; Level 2: 5%-20% growth control rate; Level 1: below 5% growth control rate
Experimental: as §1

Compound | effect on crop, Wheat (level) [1] | effect on crop, Corn (level) [2] | weed control effect, Echinochloa (level) [3] | weed control effect, Crab grass (level) [4] | weed control effect, Rorippa indica (level) [5] | weed control effect, Indian mallow (level) [6] | weed control effect, Bidens bipinnata (level) [7] | weed control effect, Green foxtail (level) [8] | effect on crop, Rice (level) [9]
CCOc1c(C(=O)Oc2c(C(=O)c3ccc(C(F)(F)F)c(-n4cccn4)c3Cl)c(C3CC3)nn2C)cnn1C [Compound 074] | 1 (Level 1: below 5% growth control rate) | 3 (Level 3: above 20% growth control rate) | 6 (Level 6: above 70% growth control rate) | 4 (Level 4: above 50% growth control rate) | 10 | 10 | 4 (Level 4: above 50% growth control rate) | 9 (Level 9: above 95% growth control rate) | 9 (Level 9: above 95% growth control rate)
CCn1ncc(C(=O)c2ccc(C(F)(F)F)c(-n3cc(C)cn3)c2Cl)c1O [Compound 136] | 1 (Level 1: below 5% growth control rate) | 1 (Level 1: below 5% growth control rate) | 10 | 7 (Level 7: above 80% growth control rate) | 10 | 10 | 10 | 10 | 10
Cn1nc(C2CC2)c(C(=O)c2ccc(C(F)(F)F)c(-n3cccn3)c2Cl)c1O [Compound 073] | 1 (Level 1: below 5% growth control rate) | 3 (Level 3: above 20% growth control rate) | 5 (Level 5: above 60% growth control rate) | 5 (Level 5: above 60% growth control rate) | 7 (Level 7: above 80% growth control rate) | 10 | 2 (Level 2: 5%-20% growth control rate) | 10 | 8 (Level 8: above 90% growth control rate)
Cc1cnn(-c2c(C(F)(F)F)ccc(C(=O)c3c(C4CC4)nn(C)c3O)c2Cl)c1 [Compound 089] | 0 | 1 (Level 1: below 5% growth control rate) | 5 (Level 5: above 60% growth control rate) | 1 (Level 1: below 5% growth control rate) | 9 (Level 9: above 95% growth control rate) | 10 | 3 (Level 3: above 20% growth control rate) | 2 (Level 2: 5%-20% growth control rate) | 1 (Level 1: below 5% growth control rate)
CCn1ncc(C(=O)c2ccc(C(F)(F)F)c(N3CCCC3=O)c2Cl)c1OC(=O)c1cn(C)nc1C [Compound 097] | 1 (Level 1: below 5% growth control rate) | 1 (Level 1: below 5% growth control rate) | 10 | 3 (Level 3: above 20% growth control rate) | 10 | 10 | 10 | 10 | 7 (Level 7: above 80% growth control rate)
Cc1nn(C)cc1C(=O)Oc1c(C(=O)c2ccc(C(F)(F)F)c(N3CCCCC3=O)c2Cl)c(C)nn1C [Compound 038] | 1 (Level 1: below 5% growth control rate) | 0 | 9 (Level 9: above 95% growth control rate) | 6 (Level 6: above 70% growth control rate) | 10 | 10 | 2 (Level 2: 5%-20% growth control rate) | 10 | 6 (Level 6: above 70% growth control rate)
Cc1nn(C)cc1C(=O)Oc1c(C(=O)c2ccc(C(F)(F)F)c(N3CCCCC3=O)c2Cl)cnn1C [Compound 034] | 1 (Level 1: below 5% growth control rate) | 3 (Level 3: above 20% growth control rate) | 10 | 10 | 10 | 9 (Level 9: above 95% growth control rate) | 4 (Level 4: above 50% growth control rate) | 5 (Level 5: above 60% growth control rate) | 3 (Level 3: above 20% growth control rate)
CCn1nc(C2CC2)c(C(=O)c2ccc(C(F)(F)F)c(N3CCCC3=O)c2Cl)c1O [Compound 104] | 5 (Level 5: above 60% growth control rate) | 4 (Level 4: above 50% growth control rate) | 10 | 9 (Level 9: above 95% growth control rate) | 10 | 10 | 7 (Level 7: above 80% growth control rate) | 10 | 10
Cc1nn(C)c(OC(=O)c2cnn(C)c2)c1C(=O)c1ccc(C(F)(F)F)c(N2CCCCC2=O)c1Cl [Compound 039] | – | 2 (Level 2: 5%-20% growth control rate) | 10 | 9 (Level 9: above 95% growth control rate) | 10 | 10 | 2 (Level 2: 5%-20% growth control rate) | 10 | 6 (Level 6: above 70% growth control rate)
Cn1cc(C(=O)Oc2c(C(=O)c3ccc(C(F)(F)F)c(-n4cccn4)c3Cl)c(C3CC3)nn2C)cn1 [Compound 076] | 2 (Level 2: 5%-20% growth control rate) | 4 (Level 4: above 50% growth control rate) | 7 (Level 7: above 80% growth control rate) | 5 (Level 5: above 60% growth control rate) | – | 10 | 4 (Level 4: above 50% growth control rate) | 10 | 9 (Level 9: above 95% growth control rate)

From patent publication US11076594B2, “Pyrazolone compound or salt thereof, preparation method therefor, herbicide composition and use thereof” (QINGDAO KINGAGROOT CHEMICAL COMPOUNDS CO., LTD., priority 2015, dated 2021)
